According to US6737383B1, “Herbicidal oxadiazolidines” (priority 1999, dated 2004):

What was measured:
cocklebur = assay: Test B pre/postemergence cocklebur; format: in vivo, Xanthium strumarium
How it was run: (§1)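 Herbicidal effect was estimated by eye on a ten-point control scale after plants spent twelve to sixteen days in a greenhouse following soil or foliar treatment. Foliar sprays targeted plants at one to four leaves; all doses were formulated in a non-phytotoxic solvent with surfactant.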

blackgrass = assay: Test B pre/postemergence blackgrass; format: in vivo, Alopecurus myosuroides
How it was run: as §1

duck salad = assay: Test B flood test duck salad; format: in vivo, Heteranthera limosa
How it was run: (§2)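 Read-out is a visual response score from 0 (no effect) to 10 (complete control), assigned by comparison with untreated controls. Treatment was applied at the 2-leaf stage, and plants stayed in the greenhouse for twelve to sixteen days before scoring.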

bamyardgrass = assay: Test B flood test barnyardgrass; format: in vivo, Echinochloa crus-galli
How it was run: as §2

wheat = assay: Test B pre/postemergence wheat; format: in vivo, Triticum aestivum
How it was run: as §1

pigweed = assay: Test B pre/postemergence pigweed; format: in vivo, Amaranthus retroflexus
How it was run: as §1

soybean = assay: Test B pre/postemergence soybean; format: in vivo, Glycine max
How it was run: as §1

rice = assay: Test B flood test rice; format: in vivo, Oryza sativa
How it was run: as §2

purple nutsedge = assay: Test B pre/postemergence purple nutsedge; format: in vivo, Cyperus rotundus
How it was run: as §1

corn = assay: Test B pre/postemergence corn; format: in vivo, Zea mays
How it was run: as §1

sugar beet = assay: Test B pre/postemergence sugar beet; format: in vivo, Beta vulgaris
How it was run: as §1

bedstraw = assay: Test B pre/postemergence bedstraw; format: in vivo, Galium aparine
How it was run: as §1

velvetleaf = assay: Test B pre/postemergence velvetleaf; format: in vivo, Abutilon theophrasti
How it was run: as §1

crabgrass = assay: Test B pre/postemergence crabgrass; format: in vivo, Digitaria sanguinalis
How it was run: as §1

surinam grass = assay: Test B pre/postemergence surinam grass; format: in vivo, Brachiaria decumbens
How it was run: as §1

wild oat = assay: Test B pre/postemergence wild oat; format: in vivo, Avena fatua
How it was run: as §1

rape = assay: Test B pre/postemergence rape; format: in vivo, Brassica napus
How it was run: as §1

smallflower flatsedge = assay: Test B flood test smallflower flatsedge; format: in vivo, Cyperus difformis
How it was run: as §2

giant foxtail = assay: Test B pre/postemergence giant foxtail; format: in vivo, Setaria faberii
How it was run: as §1

morningglory = assay: Test B pre/postemergence morningglory; format: in vivo, Ipomoea hederacea
How it was run: as §1

[1] = Postemergence, Rate 125 g/ha, scale 0 to 10, 0 is no effect, 10 is complete control
[2] = Postemergence, Rate 250 g/ha, scale 0 to 10, 0 is no effect, 10 is complete control
[3] = Postemergence, Rate 500 g/ha, scale of 0 to 10 where 0 is no effect and 10 is complete control
[4] = Preemergence, Rate 62 g/ha, scale 0 to 10 (0 no effect, 10 complete control)
[5] = Preemergence, Rate 125 g/ha, scale of 0 to 10 where 0 is no effect and 10 is complete control
[6] = Preemergence, Rate 250 g/ha, scale 0 to 10, 0 is no effect, 10 is complete control
[7] = Preemergence, Rate 500 g/ha, scale 0 to 10, 0 is no effect, 10 is complete control
[8] = Rate 62 g/ha, Postemergence, scale of 0 to 10 where 0 is no effect and 10 is complete control
[9] = Preemergence, Rate 250 g/ha, scale of 0 to 10 where 0 is no effect and 10 is complete control
[10] = Rate 62 g/ha, flood test species, Pre-emergence, visual evaluation after twelve to sixteen days
[11] = Rate 125 g/ha, under heading Pre-emergence, flood test species, visual evaluation after twelve to sixteen days
[12] = Rate 250 g/ha, Pre-emergence, flood-test species, scale 0 to 10, 0 is no effect, 10 is complete control

## CC(C)N(C(=O)n1oc(=O)n(C(C)C2CC2)c1=O)c1ccc(F)cc1 (stereo not drawn) [Compound 404]
cocklebur; [1]
  Plant response rating, Cocklebur: 2
cocklebur; [2]
  Plant response rating, Cocklebur: 2
cocklebur; [3]
  Cocklebur plant response rating: 3
cocklebur; [4]
  Plant response rating, Cocklebur: 0
cocklebur; [5]
  Plant response rating, Cocklebur: 0
cocklebur; [6]
  Cocklebur plant response rating: 0
cocklebur; [7]
  Cocklebur plant response rating: 0
cocklebur; [8]
  Cocklebur plant response rating: 0
blackgrass; [2]
  Plant response rating, Blackgrass: 10
blackgrass; [3]
  Blackgrass plant response rating: 10
blackgrass; [4]
  Plant response rating, Blackgrass: 6
blackgrass; [5]
  Plant response rating, Blackgrass: 7
blackgrass; [9]
  Blackgrass plant response rating: 9
blackgrass; [7]
  Blackgrass plant response rating: 10
blackgrass; [8]
  Blackgrass plant response rating: 5
Duck salad; [10]
  Plant response rating, Ducksalad (0 to 10 scale, 0 is no effect, 10 is complete control): 0
Duck salad; [11]
  Ducksalad plant response rating (0 to 10 scale, 0 is no effect, 10 is complete control): 1
Duck salad; [12]
  Ducksalad plant response rating: 5
bamyardgrass; [10]
  Plant response rating, Barnyardgrass (0 to 10 scale, 0 is no effect, 10 is complete control): 4
bamyardgrass; [11]
  Barnyardgrass plant response rating (0 to 10 scale, 0 is no effect, 10 is complete control): 9
bamyardgrass; [12]
  Barnyardgrass plant response rating: 9
wheat; [3]
  Wheat plant response rating: 3
wheat; [4]
  Plant response rating, Wheat: 0
wheat; [5]
  Plant response rating, Wheat: 2
wheat; [6]
  Wheat plant response rating: 4
wheat; [7]
  Wheat plant response rating: 5
pigweed; [2]
  Plant response rating, Redroot pigweed: 5
pigweed; [3]
  Redroot pigweed plant response rating: 7
pigweed; [4]
  Plant response rating, Redroot pigweed: 2
pigweed; [5]
  Plant response rating, Redroot pigweed: 6
pigweed; [6]
  Redroot pigweed plant response rating: 10
pigweed; [7]
  Redroot pigweed plant response rating: 10
soybean; [2]
  Plant response rating, Soybean: 6
soybean; [3]
  Soybean plant response rating: 7
soybean; [4]
  Plant response rating, Soybean: 0
soybean; [5]
  Plant response rating, Soybean: 0
soybean; [6]
  Soybean plant response rating: 0
soybean; [7]
  Soybean plant response rating: 3
rice; [10]
  Plant response rating, Rice (0 to 10 scale, 0 is no effect, 10 is complete control): 0
rice; [11]
  Rice plant response rating (0 to 10 scale, 0 is no effect, 10 is complete control): 0
rice; [12]
  Rice plant response rating: 7
Purple nutsedge; [2]
  Plant response rating, Nutsedge: 0
Purple nutsedge; [3]
  Nutsedge plant response rating: 0
Purple nutsedge; [4]
  Plant response rating, Nutsedge: 0
Purple nutsedge; [5]
  Plant response rating, Nutsedge: 0
Purple nutsedge; [6]
  Nutsedge plant response rating: 0
Purple nutsedge; [7]
  Nutsedge plant response rating: 0
corn; [1]
  Plant response rating, Corn: 0
corn; [2]
  Plant response rating, Corn: 0
corn; [3]
  Corn plant response rating: 1
corn; [4]
  Plant response rating, Corn: 0
corn; [5]
  Plant response rating, Corn: 2
corn; [6]
  Corn plant response rating: 2
corn; [7]
  Corn plant response rating: 6
corn; [8]
  Corn plant response rating: 0
Sugar beet; [2]
  Plant response rating, Sugarbeets: 1
Sugar beet; [3]
  Sugarbeets plant response rating: 4
Sugar beet; [4]
  Plant response rating, Sugarbeets: 0
Sugar beet; [5]
  Plant response rating, Sugarbeets: 3
Sugar beet; [6]
  Sugarbeets plant response rating: 6
Sugar beet; [7]
  Sugarbeets plant response rating: 8
bedstraw; [2]
  Plant response rating, Bedstraw: 8
bedstraw; [4]
  Plant response rating, Bedstraw: 0
bedstraw; [9]
  Bedstraw plant response rating: 10
bedstraw; [7]
  Bedstraw plant response rating: 10
velvetleaf; [2]
  Plant response rating, Velvetleaf: 0
velvetleaf; [3]
  Velvetleaf plant response rating: 6
velvetleaf; [4]
  Plant response rating, Velvetleaf: 0
velvetleaf; [5]
  Plant response rating, Velvetleaf: 1
velvetleaf; [6]
  Velvetleaf plant response rating: 5
velvetleaf; [7]
  Velvetleaf plant response rating: 7
crabgrass; [1]
  Plant response rating, Crabgrass: 3
crabgrass; [2]
  Plant response rating, Crabgrass: 5
crabgrass; [3]
  Crabgrass plant response rating: 8
crabgrass; [4]
  Plant response rating, Crabgrass: 10
crabgrass; [5]
  Plant response rating, Crabgrass: 10
crabgrass; [6]
  Crabgrass plant response rating: 10
crabgrass; [7]
  Crabgrass plant response rating: 10
crabgrass; [8]
  Crabgrass plant response rating: 0
Surinam grass; [1]
  Plant response rating, B. signalgrass: 2
Surinam grass; [3]
  B. signalgrass plant response rating: 6
Surinam grass; [4]
  Plant response rating, B. signalgrass: 2
Surinam grass; [5]
  Plant response rating, B. signalgrass: 4
Surinam grass; [9]
  B. signalgrass plant response rating: 8
Surinam grass; Preemergence, Rate 500 g/ha, scale of 0 to 10 where 0 is no effect and 10 is complete control
  B. signalgrass plant response rating: 10
Surinam grass; [8]
  B. signalgrass plant response rating: 2
Wild oat; [3]
  Wild oats plant response rating: 8
Wild oat; [4]
  Plant response rating, Wild oats: 3
Wild oat; [5]
  Plant response rating, Wild oats: 8
Wild oat; [6]
  Wild oats plant response rating: 10
Wild oat; [7]
  Wild oats plant response rating: 10
rape; [2]
  Plant response rating, Rape: 4
rape; [3]
  Rape plant response rating: 8
rape; [4]
  Plant response rating, Rape: 1
rape; [5]
  Plant response rating, Rape: 4
rape; [6]
  Rape plant response rating: 7
rape; [7]
  Rape plant response rating: 8
Smallflower flatsedge; [10]
  Plant response rating, S. Flatsedge (0 to 10 scale, 0 is no effect, 10 is complete control): 0
Smallflower flatsedge; [11]
  S. Flatsedge plant response rating (0 to 10 scale, 0 is no effect, 10 is complete control): 0
Smallflower flatsedge; [12]
  S. Flatsedge plant response rating: 8
Giant foxtail; [1]
  Plant response rating, Giant foxtail: 9
Giant foxtail; [2]
  Plant response rating, Giant foxtail: 9
Giant foxtail; [3]
  Giant foxtail plant response rating: 9
Giant foxtail; [4]
  Plant response rating, Giant foxtail: 10
Giant foxtail; [5]
  Plant response rating, Giant foxtail: 10
Giant foxtail; [6]
  Giant foxtail plant response rating: 10
Giant foxtail; [7]
  Giant foxtail plant response rating: 10
Giant foxtail; [8]
  Giant foxtail plant response rating: 5
morningglory; [2]
  Plant response rating, Morningglory: 7
morningglory; [3]
  Morningglory plant response rating: 10
morningglory; [4]
  Plant response rating, Morningglory: 0
morningglory; [5]
  Plant response rating, Morningglory: 2
morningglory; [6]
  Morningglory plant response rating: 4
morningglory; [7]
  Morningglory plant response rating: 5
